# In US20220227728A1, “Microtubule-associated protein Tau imaging compounds for Alzheimer's disease and precursors thereof” (priority 2021, published 2022):
# Entries after “also recorded” stand apart in the source; their conditions may differ.
# Test system: microtubule-associated protein Tau
# Assay: nano PET/CT imaging in P301L gene transgenic mice and control mice
# Format: in vivo
# Settings: 0.46 mCi by tail vein, 30 minutes of distribution
# Description: FIG. 3 is an image of the microtubule-associated protein Tau compound 29 of the present invention in P301L gene transgenic mice and control mice using positron emission tomography (nano PET/CT) analysis, in which P301L gene transgenic mice (source: United States JACKSON Research Center) refers to the mutation of proline to leucine at codon 301 of the encoded microtubule-associated protein Tau. These types of mutations can accelerate the formation of neurofibrillary tangles. P301L gene transgenic mice and control mice were injected through the tail vein with 0.46 millicuries (mCi) of compound 29 of the present invention, and after 30 minutes of distribution, radiography was performed on the mice using a positron emission tomography scanner (BIOSCAN).
# 0.46 mCi of compound 29 was injected into P301L gene transgenic mice and control mice, and after 30 minutes of distribution nano-PET/CT was used for contrast imaging.
smiles,measurement,value
"CC([18F])COc1ccc2cc(-n3cc4ccccc4c3)ncc2c1 (stereo not shown) [compound 29, [18F] 7-(2-fluoropropoxy)-3-(2H-isoindol-2-yl) isoquinoline]",drug accumulation (absorption) in the brain of P301L gene transgenic mice versus control mice,significantly higher than that of the control mice; also recorded: significantly greater than that of control mice
